The source of these data is US20020127544A1, “Modulators of US 28” (priority 2000, published 2002).

Counter-ions that a name gives are not always drawn. Like-named read-outs stand apart in the source and are kept apart here.

By IC50 is commonly meant the concentration at which inhibition is half-maximal. What is called Ki is the equilibrium dissociation constant of an inhibitor or competing ligand from its target.

Assay [1] addresses T1, US28 (Human cytomegalovirus, UniProt P69332). The experiment in a line: 125I-fractalkine radioligand binding to US28 on US28-NSO cells. Set-up: host or cells: mouse NSO cells (US28-NSO); species or system Cytomegalovirus (CMV). How it is done: The US28 expressing cells used in most assays consist of a mouse cell line (NSO cells from ATCC) stably expressing transfected US28 cDNA under the control of a CMV promoter (from R & D Systems). These cells were cultured in IMDM-5% FBS, and harvested when the concentration was between 0.5-1.0×10^6 cells/mL. Some assays were performed with adherent human 293 cells (US28-293 cells) or membranes. The cells were centrifuged and resuspended in assay buffer (20 mM HEPES, 140 mM NaCl, 1 mM CaCl2, 5 mM MgCl2, and with 0.2% bovine serum albumin) to a concentration of 5.6×10^6 cells/mL. Using the Multi-Probe automated system, set up with 8 assay plates at a time, first 0.09 mL of cells was added to the assay plates containing the compounds. The final concentration of the compounds was 5 μg/mL each. Then 0.09 mL of ^1251I-fractalkine diluted in assay buffer (final concentration ˜2-10fM, with ˜30,000 cpm per well) was added, the plates sealed and incubated for approximately 3 hours at 4 degrees C on a shaker platform. […] Scintillation fluid (35 μL) was added to all wells, the plates were sealed and counted in a Top Count scintillation counter. […]
Methiothepin mesylate (from the RBI division of Sigma Chemical Co., St. Louis, Mo., USA, Catalog No. M-149) and octoclothepin maleate (from RBI, Catalog No. O-111) were evaluated in the assays described in Examples 1 and 2. […]

Assay [2] addresses T1, US28. Put plainly: cytoplasmic calcium mobilization in US28-293 cells. Type of assay: cell-based, Cytomegalovirus (CMV). To be noted: INDO-1 dye, mimicking the action of fractalkine in binding and signaling (FIG. 2). Set-up: expressed in transfected cells; host or cells: human 293 cells (US28-293). The procedure:
For each test, 1×10^6 cells were incubated at 37° C. in the cuvette of a PTI spectrometer, and the ratio of 410/490 nm emission plotted over time (typically 2-3 minutes), with compounds added at 5 seconds, followed by fractalkine at 60 seconds. […] Compounds which inhibited fractalkine binding were tested in this assay for the effects on Ca2+ in this system.
Methiothepin mesylate (from the RBI division of Sigma Chemical Co., St. Louis, Mo., USA, Catalog No. M-149) and octoclothepin maleate (from RBI, Catalog No. O-111) were evaluated in the assays described in Examples 1 and 2. The IC50 values were 0.3 μM for methiothepin mesylate and 0.7 μM for octoclothepin maleate.
A general note: Calcium assays in cells follow changes in intracellular calcium, usually with a dye or a luminescent sensor.

The target of assay [3] is T1, US28. Set-up: host or cells: mouse NSO cells (US28-NSO). To be noted: CX3C chemokine binding to US28; read-out: KI, binding affinity to US28; cited from earlier work.

T1 sequence (P69332 whole entry): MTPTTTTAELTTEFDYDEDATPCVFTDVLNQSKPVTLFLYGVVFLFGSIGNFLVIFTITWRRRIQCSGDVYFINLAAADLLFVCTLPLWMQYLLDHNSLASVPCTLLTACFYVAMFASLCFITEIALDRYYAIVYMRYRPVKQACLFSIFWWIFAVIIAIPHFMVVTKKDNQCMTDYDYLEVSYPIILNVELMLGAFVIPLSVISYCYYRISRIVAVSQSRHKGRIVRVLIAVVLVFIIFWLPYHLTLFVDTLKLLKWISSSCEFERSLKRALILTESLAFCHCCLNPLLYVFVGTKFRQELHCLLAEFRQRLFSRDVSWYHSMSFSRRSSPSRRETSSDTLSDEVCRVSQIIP

For `CSc1ccc2c(c1)C(N1CCN(C)CC1)Cc1ccccc1S2` (centres unmarked) [methiothepin mesylate, methiothepin], the IC50 in assay [1] stood at 300 nM. Further, the “mode of action in calcium mobilization” value in assay [2] is given as “competitive agonists”.
In the case of `CN1CCN(C2Cc3ccccc3Sc3ccc(Cl)cc32)CC1.O=C(O)/C=C\C(=O)O` (centres unmarked) [octoclothepin maleate, octoclothepin], the IC50 in assay [1] (dose response against fractalkine on US28-NSO cells (FIG. 1), read-out: IC50, inhibition of fractalkine binding to US28) stood at 700 nM. In addition, the “mode of action in calcium mobilization” value in assay [2] is “competitive agonists”.

B1: Fractalkine: the CX3C chemokine, ligand of US28 (protein, UniProt P78423 25-397, looked up)
Fractalkine: QHHGVTKCNITCSKMTSKIPVALLIHYQQNQASCGKRAIILETRQHRLFCADPKEQWVKDAMQHLDRQAAALTRNGGTFEKQIGEVKPRTTPAAGGMDESVVLEPEATGESSSLEPTPSSQEAQRALGTSPELPTGVTGSSGTRLPPTPKAQDGGPVGTELFRVPPVSTAATWQSSAPHQPGPSLWAEAKTSEAPSTQDPSTQASTASSPAPEENAPSEGQRVWGQGQSPRPENSLEREEMGPVPAHTDAFQDWGPGSMAHVSVVPVSSEGTPSREPVASGSWTPKAEEPIHATMDPQRLGVLITPVPDAQAATRRQAVGLLAFLGLLFCLGVAMFTYQSLQGCPRKMAGEMAEGLRYIPRSCGSNSYVLVPV
Regarding B1, the Ki in assay [3] was about 0.05 nM.
